Consider one compound from article PMC5218480 (PLoS ONE, 2017).

This experiment concerns MV-4-11 cells. Description: Gene expression microarray analysis (Affymetrix PrimeView) and GSEA. The format is cell-based, human. More on the design: RFU PODN (11730768_x_at) / Fold change /veh PODN (11730768_x_at) / RFU LINC00158 (11744669_a_at) / Fold change /veh LINC00158 (11744669_a_at) / RFU DUSP10 (11751237_a_at) / Fold change /veh DUSP10 (11751237_a_at) / RFU ID3 (11757404_x_at) / Fold change /veh ID3 (11757404_x_at) / RFU PLEKHG5 (11737974_s_at) / Fold change /veh PLEKHG5 (11737974_s_at) / RFU LRRC4B (11730491_at) / Fold change /veh LRRC4B (11730491_at) / RFU GIMAP4 (11747438_a_at) / Fold change /veh GIMAP4 (11747438_a_at) / RFU KRT8 (11758183_x_at) / Fold change /veh KRT8 (11758183_x_at) / RFU CNN1 (11734310_a_at) / Fold change /veh CNN1 (11734310_a_at) / RFU VPS37D (11726825_at) / Fold change /veh VPS37D (11726825_at) / RFU C10orf10 (11716522_x_at) / Fold change /veh C10orf10 (11716522_x_at) / RFU KIR2DL2 /// KIR2DL4 /// KIR2DL5A /// KIR2DL5B /// KIR2DS1 /// KIR2DS2 /// KIR2DS3 /// KIR2DS4 /// KIR3DL3 /// KIR3DL3 /// KIR3DS1 (11738374_at) / Fold change /veh KIR2DL2 /// KIR2DL4 /// KIR2DL5A /// KIR2DL5B /// KIR2DS1 /// KIR2DS2 /// KIR2DS3 /// KIR2DS4 /// KIR3DL3 /// KIR3DL3 /// KIR3DS1 (11738374_at) / RFU C1QL1 (11718748_at) / Fold change /veh C1QL1 (11718748_at) / RFU TMPRSS4 (11747572_a_at) / Fold change /veh TMPRSS4 (11747572_a_at) / RFU HAMP (11756126_x_at) / Fold change /veh HAMP (11756126_x_at) / RFU RNFT2 (11725882_a_at) / Fold change /veh RNFT2 (11725882_a_at) / RFU NR4A2 (11747474_a_at) / Fold change /veh NR4A2 (11747474_a_at) / RFU ABCC12 (11746883_a_at) / Fold change /veh ABCC12 (11746883_a_at) / RFU TMEM136 (11760407_x_at) / Fold change /veh TMEM136 (11760407_x_at) / RFU CLDN22 /// WWC2 (11732394_at) / Fold change /veh CLDN22 /// WWC2 (11732394_at) / RFU HLA-DPB1 (11760878_x_at) / Fold change /veh HLA-DPB1 (11760878_x_at) / RFU SPINT1 (11716480_a_at) / Fold change /veh SPINT1 (11716480_a_at) / RFU GAP43 (11754022_s_at) / Fold change /veh GAP43 (11754022_s_at) / RFU A4GNT (11735810_at) / Fold change /veh A4GNT (11735810_at) / RFU PRB3 (11715151_x_at) / Fold change /veh PRB3 (11715151_x_at) / RFU TUBB4B (11761932_at) / Fold change /veh TUBB4B (11761932_at) / RFU CAPN14 (11732068_a_at) / Fold change /veh CAPN14 (11732068_a_at) / RFU TMCC2 (11721928_a_at) / Fold change /veh TMCC2 (11721928_a_at) / RFU IRGQ (11745062_a_at) / Fold change /veh IRGQ (11745062_a_at) / RFU FAM174B (11720279_a_at) / Fold change /veh FAM174B (11720279_a_at) / RFU TMPRSS4 (11748680_a_at) / Fold change /veh TMPRSS4 (11748680_a_at) / RFU FAM212B (11763350_a_at) / Fold change /veh FAM212B (11763350_a_at) / RFU PLEKHG5 (11743358_a_at) / Fold change /veh PLEKHG5 (11743358_a_at) / RFU ZSCAN30 (11745921_a_at) / Fold change /veh ZSCAN30 (11745921_a_at) / RFU CMKLR1 (11741424_a_at) / Fold change /veh CMKLR1 (11741424_a_at) / RFU LOC101060620 /// MAPK8IP1 (11723275_at) / Fold change /veh LOC101060620 /// MAPK8IP1 (11723275_at) / RFU SPTSSB (11747773_x_at) / Fold change /veh SPTSSB (11747773_x_at) / RFU PRSS12 (11739890_at) / Fold change /veh PRSS12 (11739890_at) / RFU BIN1 (11741810_x_at) / Fold change /veh BIN1 (11741810_x_at) / RFU WNT11 (11732464_a_at) / Fold change /veh WNT11 (11732464_a_at) / RFU C10orf10 (11716521_a_at) / Fold change /veh C10orf10 (11716521_a_at) / RFU C5orf56 (11738089_at) / Fold change /veh C5orf56 (11738089_at) / RFU CYB561 (11721691_x_at) / Fold change /veh CYB561 (11721691_x_at) / RFU ANKRD19P (11752326_a_at) / Fold change /veh ANKRD19P (11752326_a_at) / RFU OR2T12 /// OR2T33 /// OR2T8 (11738714_s_at) / Fold change /veh OR2T12 /// OR2T33 /// OR2T8 (11738714_s_at) / RFU VCAN (11748164_a_at) / Fold change /veh VCAN (11748164_a_at) / RFU JSRP1 (11732532_at) / Fold change /veh JSRP1 (11732532_at) / RFU KRTAP10-11 (11738290_x_at) / Fold change /veh KRTAP10-11 (11738290_x_at) / RFU MYO3A (11730013_a_at) / Fold change /veh MYO3A (11730013_a_at) / RFU EBF3 (11725865_a_at) / Fold change /veh EBF3 (11725865_a_at) / RFU CAMK2N1 (11719241_x_at) / Fold change /veh CAMK2N1 (11719241_x_at) / RFU C5orf56 (11738088_a_at) / Fold change /veh C5orf56 (11738088_a_at) / RFU OLFML3 (11715873_a_at) / Fold change /veh OLFML3 (11715873_a_at) / RFU LOC100653217 /// NTM (11731650_a_at) / Fold change /veh LOC100653217 /// NTM (11731650_a_at) / RFU MAPK11 (11762145_a_at) / Fold change /veh MAPK11 (11762145_a_at) / RFU FIZ1 (11724087_x_at) / Fold change /veh FIZ1 (11724087_x_at) / RFU OASL (11726364_x_at) / Fold change /veh OASL (11726364_x_at) / RFU SOX15 (11748057_x_at) / Fold change /veh SOX15 (11748057_x_at) / RFU CD79A (11719716_a_at) / Fold change /veh CD79A (11719716_a_at) / RFU HIST1H1D (11736915_at) / Fold change /veh HIST1H1D (11736915_at) / RFU CASKIN2 (11723855_a_at) / Fold change /veh CASKIN2 (11723855_a_at) / RFU LOC730098 (11760151_x_at) / Fold change /veh LOC730098 (11760151_x_at) / RFU OR4N2 (11742367_at) / Fold change /veh OR4N2 (11742367_at) / RFU PRRT2 (11749266_a_at) / Fold change /veh PRRT2 (11749266_a_at) / RFU SNX32 (11753110_a_at) / Fold change /veh SNX32 (11753110_a_at) / RFU CDHR5 (11726645_a_at) / Fold change /veh CDHR5 (11726645_a_at) / RFU RCAN1 (11760418_a_at) / Fold change /veh RCAN1 (11760418_a_at) / RFU FAM167A (11723789_a_at) / Fold change /veh FAM167A (11723789_a_at) / RFU FAM26E (11764081_at) / Fold change /veh FAM26E (11764081_at) / RFU ISYNA1 (11749810_s_at) / Fold change /veh ISYNA1 (11749810_s_at) / RFU ACY1 (11761880_at) / Fold change /veh ACY1 (11761880_at) / RFU 11764098_at / Fold change /veh 11764098_at / RFU SAMD14 (11745864_x_at) / Fold change /veh SAMD14 (11745864_x_at) / RFU NPB (11741838_a_at) / Fold change /veh NPB (11741838_a_at) / RFU TMPRSS6 (11731388_a_at) / Fold change /veh TMPRSS6 (11731388_a_at) / RFU KRTAP10-2 (11738614_at) / Fold change /veh KRTAP10-2 (11738614_at) / RFU ARHGAP8 /// PRR5-ARHGAP8 (11727945_x_at) / Fold change /veh ARHGAP8 /// PRR5-ARHGAP8 (11727945_x_at) / RFU KRTAP5-7 /// NADSYN1 (11734609_at) / Fold change /veh KRTAP5-7 /// NADSYN1 (11734609_at) / RFU RASL12 (11751679_a_at) / Fold change /veh RASL12 (11751679_a_at) / RFU CDKN2B (11736163_a_at) / Fold change /veh CDKN2B (11736163_a_at) / RFU PRF1 (11729649_at) / Fold change /veh PRF1 (11729649_at) / RFU, ZNF638 /// ZNF638-IT1 / Fold change vs veh, ZNF638 /// ZNF638-IT1 / RFU, PANK3 / Fold change vs veh, PANK3 / RFU, SH3YL1 / Fold change vs veh, SH3YL1 / RFU, ZEB2 / Fold change vs veh, ZEB2 / RFU, NRIP1 / Fold change vs veh, NRIP1 / RFU, PTTG1IP / Fold change vs veh, PTTG1IP / RFU, CAPN2 / Fold change vs veh, CAPN2 / RFU, MED14 / Fold change vs veh, MED14 / RFU, SNORA58 / Fold change vs veh, SNORA58 / RFU, C1orf63 / Fold change vs veh, C1orf63 / RFU, LRRFIP1 / Fold change vs veh, LRRFIP1 / RFU, NDUFAF7 / Fold change vs veh, NDUFAF7 / RFU, SLC12A2 / Fold change vs veh, SLC12A2 / RFU, IBTK / Fold change vs veh, IBTK / RFU, ESF1 / Fold change vs veh, ESF1 / Fold change vs veh, TMEM50B / RFU, TAOK1 / Fold change vs veh, TAOK1 / RFU, ACBD3 / Fold change vs veh, ACBD3 / RFU, TMA16 / Fold change vs veh, TMA16 / RFU, RWDD3 / Fold change vs veh, RWDD3 / RFU, BCAT1 / Fold change vs veh, BCAT1 / RFU, EDEM3 / Fold change vs veh, EDEM3 / RFU, TMEM33 / Fold change vs veh, TMEM33 / RFU, WDR75 / Fold change vs veh, WDR75 / RFU, AHCTF1 / Fold change vs veh, AHCTF1 / RFU, TFRC / Fold change vs veh, TFRC / RFU, ZDHHC17 / Fold change vs veh, ZDHHC17 / RFU, NOM1 / Fold change vs veh, NOM1 / RFU, ARL8B / Fold change vs veh, ARL8B / RFU, ZBTB11 / Fold change vs veh, ZBTB11 / RFU, TAMM41 / Fold change vs veh, TAMM41 / RFU, KIAA1704 /// LOC100996395 / Fold change vs veh, KIAA1704 /// LOC100996395 / RFU, ING1 / Fold change vs veh, ING1 / RFU, TRMT61B / Fold change vs veh, TRMT61B / RFU, FUBP3 / Fold change vs veh, FUBP3 / RFU, TP53 / Fold change vs veh, TP53 / RFU, TNKS2 / Fold change vs veh, TNKS2 / RFU, ZFP14 / Fold change vs veh, ZFP14 / RFU, ACTR2 / Fold change vs veh, ACTR2 / RFU, PPP3R1 / Fold change vs veh, PPP3R1 / RFU, PIK3R1 / Fold change vs veh, PIK3R1 / RFU, HNRNPA1 / Fold change vs veh, HNRNPA1 / RFU, RNF170 / Fold change vs veh, RNF170 / RFU, ZNF28 / Fold change vs veh, ZNF28 / RFU, RNGTT / Fold change vs veh, RNGTT / RFU, OGT / Fold change vs veh, OGT / RFU, BRD1 / Fold change vs veh, BRD1 / RFU, MARS / Fold change vs veh, MARS / RFU, ZNF655 / Fold change vs veh, ZNF655 / RFU, FAHD1 / Fold change vs veh, FAHD1 / RFU, BDP1 / Fold change vs veh, BDP1 / RFU, LRRCC1 / Fold change vs veh, LRRCC1 / RFU, ARID1A / Fold change vs veh, ARID1A / RFU, ZNF146 / Fold change vs veh, ZNF146 / RFU, ZNF330 / Fold change vs veh, ZNF330 / RFU, GPN3 / Fold change vs veh, GPN3 / RFU, C9orf123 / Fold change vs veh, C9orf123 / RFU, N4BP2L2 / Fold change vs veh, N4BP2L2 / RFU, ARFIP1 / Fold change vs veh, ARFIP1 / RFU, FAM179B / Fold change vs veh, FAM179B / RFU, BCL10 / Fold change vs veh, BCL10 / RFU, UHRF1BP1L / Fold change vs veh, UHRF1BP1L / RFU, BET1 / Fold change vs veh, BET1 / RFU, CNOT2 / Fold change vs veh, CNOT2 / RFU, ZNF268 / Fold change vs veh, ZNF268 / Fold change vs veh, ZNF507 / RFU, DGCR2 / Fold change vs veh, DGCR2 / RFU, WDSUB1 / Fold change vs veh, WDSUB1 / Fold change vs veh, HSP90B1 /// MIR3652 / RFU, ADSS / Fold change vs veh, ADSS / RFU, GK / Fold change vs veh, GK / RFU, ZNF148 / Fold change vs veh, ZNF148 / RFU, TAF9 / Fold change vs veh, TAF9 / RFU, SLC1A5 / Fold change vs veh, SLC1A5 / RFU, SLMO2 / Fold change vs veh, SLMO2 / RFU, ABCC4 / Fold change vs veh, ABCC4 / RFU, LOC101060439 /// RAP1B / Fold change vs veh, LOC101060439 /// RAP1B / RFU, RFX7 / Fold change vs veh, RFX7 / RFU, GTPBP10 / Fold change vs veh, GTPBP10 / RFU, CNEP1R1 / Fold change vs veh, CNEP1R1 / RFU, BIVM-ERCC5 /// ERCC5 / Fold change vs veh, BIVM-ERCC5 /// ERCC5 / RFU, ILF3 / Fold change vs veh, ILF3 / RFU 11762660_at / Fold change /veh 11762660_at / RFU VCAN (11757783_s_at) / Fold change /veh VCAN (11757783_s_at) / RFU DDX43 (11728927_at) / Fold change /veh DDX43 (11728927_at) / RFU KRT8 (11758188_x_at) / Fold change /veh KRT8 (11758188_x_at) / RFU NKD1 (11759106_at) / Fold change /veh NKD1 (11759106_at) / RFU SRD5A1 (11742802_a_at) / Fold change /veh SRD5A1 (11742802_a_at) / RFU TPSAB1 /// TPSB2 (11721975_s_at) / Fold change /veh TPSAB1 /// TPSB2 (11721975_s_at) / RFU GSTM3 (11746129_a_at) / Fold change /veh GSTM3 (11746129_a_at) / RFU IL23R (11737362_x_at) / Fold change /veh IL23R (11737362_x_at) / RFU TMEM51 (11727254_a_at) / Fold change /veh TMEM51 (11727254_a_at) / RFU PIWIL2 (11732686_x_at) / Fold change /veh PIWIL2 (11732686_x_at) / RFU ORM1 (11744905_x_at) / Fold change /veh ORM1 (11744905_x_at) / RFU CCDC152 (11743942_at) / Fold change /veh CCDC152 (11743942_at) / RFU ECM1 (11717891_a_at) / Fold change /veh ECM1 (11717891_a_at) / RFU IL23R (11748794_a_at) / Fold change /veh IL23R (11748794_a_at) / RFU TNFAIP8L3 (11732012_x_at) / Fold change /veh TNFAIP8L3 (11732012_x_at) / RFU MBOAT4 (11741988_at) / Fold change /veh MBOAT4 (11741988_at) / RFU 11764193_at / Fold change /veh 11764193_at / RFU TMEM53 (11763286_at) / Fold change /veh TMEM53 (11763286_at) / RFU MAGEB2 (11727129_at) / Fold change /veh MAGEB2 (11727129_at) / RFU TMEM200A (11744735_a_at) / Fold change /veh TMEM200A (11744735_a_at) / RFU CCDC152 (11751479_a_at) / Fold change /veh CCDC152 (11751479_a_at) / RFU FAM211A (11726209_a_at) / Fold change /veh FAM211A (11726209_a_at) / RFU RGS16 (11746705_a_at) / Fold change /veh RGS16 (11746705_a_at) / RFU VCAN (11755009_s_at) / Fold change /veh VCAN (11755009_s_at) / RFU RHOB (11743442_s_at) / Fold change /veh RHOB (11743442_s_at) / RFU RGS16 (11720943_a_at) / Fold change /veh RGS16 (11720943_a_at) / RFU RGS16 (11720944_at) / Fold change /veh RGS16 (11720944_at) / RFU, VPS4B / Fold change vs veh, VPS4B / RFU, CREB1 / Fold change vs veh, CREB1 / RFU, DNAJC13 / Fold change vs veh, DNAJC13 / RFU, GNAQ / Fold change vs veh, GNAQ / RFU, CDK5R1 / Fold change vs veh, CDK5R1 / RFU, ZRANB3 / Fold change vs veh, ZRANB3 / RFU, CUL4A / Fold change vs veh, CUL4A / RFU, CCNY / Fold change vs veh, CCNY / RFU, UFL1 / Fold change vs veh, UFL1 / RFU, COG3 / Fold change vs veh, COG3 / RFU, DIAPH2 / Fold change vs veh, DIAPH2 / RFU, SKA2 / Fold change vs veh, SKA2 / RFU, AFF3 / Fold change vs veh, AFF3 / RFU, LMF1 / Fold change vs veh, LMF1 / RFU, IPO11 / Fold change vs veh, IPO11 / RFU, DFFB / Fold change vs veh, DFFB / RFU, FOXP1 / Fold change vs veh, FOXP1 / RFU, CARD8 / Fold change vs veh, CARD8 / RFU, STRN3 / Fold change vs veh, STRN3 / RFU, ADK / Fold change vs veh, ADK / RFU, RASSF2 / Fold change vs veh, RASSF2 / RFU, WIPF1 / Fold change vs veh, WIPF1 / RFU, LARP1B / Fold change vs veh, LARP1B / RFU, RASA1 / Fold change vs veh, RASA1 / RFU, RB1 / Fold change vs veh, RB1 / RFU, PPFIA1 / Fold change vs veh, PPFIA1 / RFU, MAT2A / Fold change vs veh, MAT2A / RFU, CCT5 / Fold change vs veh, CCT5 / RFU, WDR92 / Fold change vs veh, WDR92 / RFU, CUX1 / Fold change vs veh, CUX1 / RFU, TTC7A / Fold change vs veh, TTC7A / RFU, TMEM135 / Fold change vs veh, TMEM135 / RFU, DEPTOR / Fold change vs veh, DEPTOR / RFU, CPM / Fold change vs veh, CPM / RFU, DNAJB6 / Fold change vs veh, DNAJB6 / RFU, CACNA2D3 / Fold change vs veh, CACNA2D3 / RFU, DTX4 / Fold change vs veh, DTX4 / RFU, TFCP2 / Fold change vs veh, TFCP2 / RFU, GMCL1 /// GMCL1P1 / Fold change vs veh, GMCL1 /// GMCL1P1 / RFU, AEBP2 / Fold change vs veh, AEBP2 / RFU, SNHG1 /// SNORD22 /// SNORD25 /// SNORD26 /// SNORD27 /// SNORD28 /// SNORD29 /// SNORD31 / Fold change vs veh, SNHG1 /// SNORD22 /// SNORD25 /// SNORD26 /// SNORD27 /// SNORD28 /// SNORD29 /// SNORD31 / Fold change (Aza/veh), C12orf56 (ProbeSet 11735607_a_at) / Fold change (ACY-1035/veh), C12orf56 (ProbeSet 11735607_a_at) / Fold change (Aza/veh), FGFR1OP (ProbeSet 11751329_s_at) / Fold change (ACY-1035/veh), FGFR1OP (ProbeSet 11751329_s_at) / Fold change (Aza/veh), VPS36 (ProbeSet 11739960_a_at) / Fold change (ACY-1035/veh), VPS36 (ProbeSet 11739960_a_at) / RFU SYPL1 (11715823_x_at) / Fold change /veh SYPL1 (11715823_x_at) / RFU IGFBP7 (11715501_s_at) / Fold change /veh IGFBP7 (11715501_s_at) / RFU REEP3 (11722064_at) / Fold change /veh REEP3 (11722064_at) / RFU IGLL1 (11728026_x_at) / Fold change /veh IGLL1 (11728026_x_at): dose or concentration left out as unconfirmed. As to conditions: MV-4-11 cells, 48 hours.

Regarding `Nc1ncn([C@@H]2O[C@H](CO)[C@@H](O)[C@H]2O)c(=O)n1` [azacitidine], the “RFU CLDN22 /// WWC2 (11732394_at)” value came out at 8.78 RFU.
